Data as given in patent US8772495B2, “5-lipoxygenase-activating protein inhibitor” (Panmira Pharmaceuticals, LLC, priority 2008, dated 2014).
Several values for one entry are separate records, joined by “and”; a condition that tells them apart may be missing. Identical values can stand only once. Like-named read-outs stand apart in the source and are kept apart here. Marks after values point to notes of the source that are not given here.

Experiments:
CYP2C9 = CYP2C9 (Homo sapiens (Human), UniProt P11712); test: Cellular cytochrome P450 induction in cryopreserved human hepatocytes; settings: tested at 10 μM, diclofenac substrate
CYP2C9, sequence (P11712 whole entry, looked up): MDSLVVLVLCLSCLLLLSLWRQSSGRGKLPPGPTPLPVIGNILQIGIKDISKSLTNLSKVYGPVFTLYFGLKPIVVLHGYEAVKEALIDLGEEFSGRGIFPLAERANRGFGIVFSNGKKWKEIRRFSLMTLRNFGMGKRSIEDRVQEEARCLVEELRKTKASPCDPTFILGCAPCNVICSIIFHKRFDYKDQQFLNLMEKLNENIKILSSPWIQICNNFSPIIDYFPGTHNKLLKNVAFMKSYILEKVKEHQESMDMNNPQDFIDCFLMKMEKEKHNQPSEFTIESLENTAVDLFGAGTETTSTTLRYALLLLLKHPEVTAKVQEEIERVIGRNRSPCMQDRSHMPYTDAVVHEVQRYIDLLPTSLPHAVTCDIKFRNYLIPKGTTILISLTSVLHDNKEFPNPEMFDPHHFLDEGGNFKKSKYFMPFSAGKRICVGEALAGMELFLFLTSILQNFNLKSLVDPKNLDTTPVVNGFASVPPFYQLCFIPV

[1] = tested on: LTB4 in Washed Human Leukocytes; test: Inhibition of LTB4 in washed human leukocytes; format: cell-based; settings: individual tests 1-4
[2] = Single-dose pharmacokinetics in beagle dogs; format: in vivo, female beagle dogs; settings: for Cmax: Oral
[3] = tested on: whole blood ionophore-stimulated leukotriene LTB4; test: Phase I study: ex vivo ionophore-stimulated LTB4; format: in vivo, human
From the text: Study Design: Single center, double-blind, randomized, placebo-controlled, single ascending dose followed by multiple ascending dose study.
Sample Size: (1) Single Dose Phase: eight (8) subjects (6 active, 2 placebo) per dose level; up to 5 dose levels are planned (a total of 40 subjects if all 5 dose levels are completed); and (2) Multiple Dose Phase: eight (8) subjects (6 active, 2 placebo) per dose level; up to 4 dose levels are planned (a total of 32 subjects if all 4 dose levels are completed).
Formulations: Compound 2 was supplied as an oral powder for reconstitution. Placebo solution matched. […] The placebo differed only in the absence of the active.
The following dosing cohorts were used:
Routes of Administration: All doses were administered orally with approximately 100 mL of water rinse. Subjects were fasted for at least 8 hours prior to dosing and for 2 hours after dosing. For BID dosing in the Multiple Dose Phase, when applicable, subjects were fasted for at least 2 hours prior to the second daily dose.
Plasma concentrations of Compound 1 were determined using a validated LC/MS method. Whole blood ionophore-stimulated leukotriene LTB4 and urinary LTE4 production were assayed by ELISA and mass spectrometry, respectively.
Analysis of Samples: Concentrations of Compound 1 was determined in plasma samples collected from subjects. Similarly, concentrations of LTB4 in plasma and urinary LTE4 were determined in blood and urine samples collected.

[4] = Plasma binding (equilibrium dialysis); format: in vitro ADME, Monkey (cynomologus); settings: monkey plasma, read-out: % Bound (converted)
Description: (§1) Experiments were performed using equilibrium dialysis.

[5] = Oral administration of liquid formulations to rats; set-up: species or system male Spargue-Dawley rats; settings: Sprague-Dawley, rat, in vivo, solutions of Table 19, male rats
[6] = tested on: LTB4 in Human Whole Blood; test: Human blood LTB4 inhibition assay; format: cell-based; settings: individual tests 1-8
Description: A non-limiting example of such a human blood LTB4 inhibition assay is as follows: Blood was drawn from consenting human volunteers into heparinized tubes and 125 μL aliquots added to wells containing 2.5 μL 50% dimethylsulfoxide (vehicle) or 2.5 μL drug in 50% dimethylsulfoxide. Samples were incubated for 15 minutes at 37° C. 2 μL calcium ionophore A23817 (from a 50 mM dimethylsulfoxide stock diluted just prior to the assay in Hanks balanced salt solution (Invitrogen)) to 1.25 mM) was added, solutions mixed and incubated for 30 minutes at 37° C. Samples were centrifuged at 1,000 rpm (˜200×g) for 10 minutes at 4° C., plasma removed and a 1:100 dilution assayed for LTB4 concentration using ELISA (Assay Designs). Drug concentrations to achieve 50% inhibition (IC50's) of vehicle LTB4 were determined by nonlinear regression (Graphpad Prism) of % inhibition versus log drug concentration.

[7] = Plasma binding (equilibrium dialysis); format: in vitro ADME; settings: read-out: % Bound (converted)
Description: as §1

[8] = in vivo, po, 250 mg/kg/day
Description: Twenty-four hours following the final drug administration mice were placed into an enclosed Plexiglas chamber and exposed to CO2 for a period of 30-60 seconds or until breathing ceased. They were then removed subject to cervical dislocation and blood taken via a cardiac puncture. Mice were next placed in a supine position and a midline incision made. All organs were inspected and the livers removed by careful dissection. Liver weights were recorded as well as any gross abnormalities.

[9] = female, beagle, dog, plasma, po, 5 mg/kg, 0.5% Methylcellulose, Fasted
[10] = female, beagle, dog, plasma, po, 5 mg/kg, 0.5% Methylcellulose, Fed
[11] = female, beagle, dog, plasma, po, 6.5 mg/kg, 50 mg Pill, Fasted
[12] = female, beagle, dog, plasma, po, 6.5 mg/kg, 50 mg Pill, Fed

CYP2C9 induction (CYP2C9): No apparent induction
IC50 [1]: 0.00049 µM and 0.00087 µM and 0.00022 µM and 0.00017 µM
IC90 [1]: 0.00077 µM and 0.00103 µM and 0.00046 µM and 0.00041 µM
Cmax ([2]; 0.5% Methylcellulose, 5 mg/kg, Fasted): 12400 ng/mL
reduction in oral bioavailability and dose-adjusted AUC, IR pill compared to oral suspension ([2]; fasted or fed comparator dogs): ~30%
AUC(0-inf) [2, 9]: 67800 ng·h/mL
Tmax [2, 9]: 2 h
bioavailability [2, 9]: 52%
AUC(0-inf) [2, 10]: 24300 ng·h/mL
Tmax [2, 10]: 1.3 h
bioavailability [2, 10]: 19%
Cmax ([2]; female, beagle, dog, plasma, po, 5 mg/kg, 0.5% Methylcellulose, 5 mg/kg, Fed, read-out: Cmax): 3700 ng/mL
AUC(0-inf) [2, 11]: 41000 ng·h/mL
Tmax [2, 11]: 2 h
bioavailability [2, 11]: 24%
AUC(0-inf) [2, 12]: 14400 ng·h/mL
Tmax [2, 12]: 1.7 h
bioavailability [2, 12]: 8.4%
Cmax ([2]; female, beagle, dog, plasma, po, 6.5 mg/kg, 50 mg Pill, 6.5 mg/kg, Fasted, read-out: Cmax): 7600 ng/mL
Cmax ([2]; female, beagle, dog, plasma, po, 6.5 mg/kg, 50 mg Pill, 6.5 mg/kg, Fed, read-out: Cmax): 3200 ng/mL
half-life ([2]; female, beagle, dog, plasma, IV, 4:1 PEG400:Water, 0.67 mg/kg, Fasted): 13 h
fraction unbound at 10 μM [4]: 0.003
Tmax [5]: ≤ 2 h
IC50 [6]: 0.552 µM and 0.645 µM and 0.563 µM and 0.41 µM and 0.642 µM and 0.482 µM and 0.31 µM and 0.444 µM
IC90 [6]: 3.44 µM and 1.22 µM and 1.55 µM and 0.81 µM and 1.05 µM and 0.79 µM and 0.36 µM and 1.24 µM
fraction unbound at 10 μM ([7]; human plasma): 0.005
fraction unbound at 10 μM ([7]; mixed breeds, dog plasma): 0.003
fraction unbound at 10 μM ([7]; mixed breeds, rat plasma): 0.002
Liver weight ([8]; female, CD-1, mouse, 4 days): 1.2 ± 0.1
liver weight change as compared to vehicle control ([8]; female, CD-1, mouse, 4 days): 5%
Compound: CCOc1ccc(-c2ccc(Cn3c(CC(C)(C)C(=O)[O-])c(SC(C)(C)C)c4cc(OCc5ccc(C)cn5)ccc43)cc2)cn1.[Na+] [Compound 2, sodium 3-[3-(tert-butylsulfanyl)-1-[4-(6-ethoxy-pyridin-3-yl)benzyl]-5-(5-methyl-pyridin-2-yl-methoxy)-1H-indol-2-yl]-2,2-dimethylpropionate]
tE>50% (time above 50% LTB4 inhibition) ([3]; multiple dose 10 mg, Day 1): 17.5 h
tE>90% (time above 90% LTB4 inhibition) ([3]; multiple dose 10 mg, Day 1): 0.0 h
tE>50% (time above 50% LTB4 inhibition) ([3]; multiple dose 10 mg, Day 11): 27.4 h
tE>90% (time above 90% LTB4 inhibition) ([3]; multiple dose 10 mg, Day 11): 0.0 h
tE>50% (time above 50% LTB4 inhibition) ([3]; multiple dose 50 mg, Day 1): >23.3 h
tE>90% (time above 90% LTB4 inhibition) ([3]; multiple dose 50 mg, Day 1): 0.0 h
tE>50% (time above 50% LTB4 inhibition) ([3]; multiple dose 50 mg, Day 11): 42.4 h
tE>90% (time above 90% LTB4 inhibition) ([3]; multiple dose 50 mg, Day 11): 10.0 h
tE>50% (time above 50% LTB4 inhibition) ([3]; multiple dose 150 mg, Day 1): >23.4 h
tE>90% (time above 90% LTB4 inhibition) ([3]; multiple dose 150 mg, Day 1): 15.1 h
tE>50% (time above 50% LTB4 inhibition) ([3]; multiple dose 150 mg, Day 11): >72.0 h
tE>90% (time above 90% LTB4 inhibition) ([3]; multiple dose 150 mg, Day 11): 52.4 h
tE>50% (time above 50% LTB4 inhibition) ([3]; multiple dose 450 mg, Day 1): >23.7 h
tE>90% (time above 90% LTB4 inhibition) ([3]; multiple dose 450 mg, Day 1): 17.4 h
tE>50% (time above 50% LTB4 inhibition) ([3]; multiple dose 450 mg, Day 11): >72.0 h
tE>90% (time above 90% LTB4 inhibition) ([3]; multiple dose 450 mg, Day 11): 50.4 h
LTB4 level at t = 24 hrs. ([3]; single dose 50 mg): 37 ± 4.7 % of baseline
tE>50% (time above 50% LTB4 inhibition) ([3]; single dose 50 mg, Day 1): 32.2 h
tE>90% (time above 90% LTB4 inhibition) ([3]; single dose 50 mg, Day 1): 0.0 h
LTB4 level at t = 24 hrs. ([3]; single dose 150 mg): 24 ± 4.4 % of baseline
tE>50% (time above 50% LTB4 inhibition) ([3]; single dose 150 mg, Day 1): 41.9 h
tE>90% (time above 90% LTB4 inhibition) ([3]; single dose 150 mg, Day 1): 14.2 h
LTB4 level at t = 24 hrs. ([3]; single dose 300 mg): 23 ± 8.3 % of baseline
tE>90% (time above 90% LTB4 inhibition) ([3]; single dose 300 mg, Day 1): 16.1 h
tE>50% (time above 50% LTB4 inhibition) ([3]; single dose 300 mg, Day 1, estimated): 30^# h
LTB4 level at t = 24 hrs. ([3]; single dose 600 mg): 1.6 ± 0.98 % of baseline
tE>50% (time above 50% LTB4 inhibition) ([3]; single dose 600 mg, Day 1): >71.7 h
tE>90% (time above 90% LTB4 inhibition) ([3]; single dose 600 mg, Day 1): 67.2 h
LTB4 level at t = 24 hrs. ([3]; single dose 1000 mg): 1.9 ± 0.41 % of baseline
tE>50% (time above 50% LTB4 inhibition) ([3]; single dose 1000 mg, Day 1): >71.7 h
tE>90% (time above 90% LTB4 inhibition) ([3]; single dose 1000 mg, Day 1): 42.6 h
Liver weight (% body weight) ([8]; female, CD-1, mouse, 4 days): 4.4 % body weight
necropsy findings ([8]; mouse): no gross abnormalities
